One experiment deals with Trypanosoma brucei rhodesiense. The experiment can be described thus: Antimicrobial activity against Trypanosoma brucei rhodesiense. The format is functional, organism-based.
Details: not given
Broadly, the IC50 is the concentration needed to halve the response being measured. High values mean weaker potency in that assay, low ones greater potency in that assay. `CC1CS(=O)(=O)CCN1/N=C/c1ccc([N+](=O)[O-])o1` (configuration not stated) [NIFURTIMOX] showed a half-inhibitory concentration (IC50) of 2 µM.

For the next experiment, the system named is Cryptosporidium parvum. Put plainly: Antimicrobial activity against Cryptosporidium parvum. The format is functional, organism-based.
Details: not given
On to `COc1ccc(OC)c(Cc2sc3nc(N)nc(N)c3c2C)c1`, for which the IC50 was 1 µM.
`Nc1nc(N)c2nc(Cc3ccc(Cl)cc3)c(Cc3ccc(Cl)cc3)nc2n1` had an IC50 of 1 µM.
`Nc1nc(N)c2nc(Cc3ccc(Cl)c(Cl)c3)c(Cc3ccc(Cl)c(Cl)c3)nc2n1` showed an IC50 of 4 µM.
`Nc1nc(N)c2nc(CN3c4ccccc4CC4C=CC=CC43)cnc2n1` (configuration not stated) registered a concentration for half-maximal inhibition (IC50) of 1 µM. Compared with the last compound, the IC50 is about 4-fold lower.
With `Nc1nc(N)c2nc(CN3c4ccccc4SC4C=CC=CC43)cnc2n1` (configuration not stated), the IC50 stood at 1 µM. This lies in the single-digit micromolar range.
Still for that read-out and setting: as for `Nc1nc(N)c2cc(CN3c4ccccc4C=CC4C=CC=CC43)cnc2n1` (configuration not stated), the figure is 1 µM; as for `CCCC(C)NC(=O)c1ccc(N(C)Cc2cnc3nc(N)nc(N)c3n2)cc1` (configuration not stated), 1 µM.
The same measure, in the same setting: as for `CN(Cc1cnc2nc(N)nc(N)c2n1)c1ccc(C(=O)NC(CO)CCO)cc1` (configuration not stated), the figure is 2 µM.
On the same count and under the same terms, to `Nc1nc(N)c2cc(/C=C/c3ccccc3)ccc2n1` belongs 1 µM.
`COc1cc(Cc2csc3nc(N)nc(N)c23)c(Br)c(OC)c1OC`: 3 µM corresponded to half-maximal inhibition (IC50).
Still for that read-out and setting: to `Nc1nc(N)c2c(n1)-c1ccsc1CC2` belongs 30 µM.
The same measure, in the same setting: as for `COc1cc(CN2CCc3nc(N)nc(N)c3C2)c(Br)c(OC)c1OC`, the figure is 3 µM; as for `COc1cc(CCc2cc3c(N)nc(N)nc3s2)c(Br)c(OC)c1OC`, 5 µM; as for `COc1cc(Cc2sc3nc(N)nc(N)c3c2C)c(Br)c(OC)c1OC`, 2 µM.
The compound `COc1cc(Cc2sc3nc(N)nc(N)c3c2C)cc(OC)c1OC` showed an IC50 of 2 µM.
`COc1ccc(OC)c(-c2sc3nc(N)nc(N)c3c2C)c1` registered an IC50 of 1 µM.
The same measure, in the same setting: as for `COc1cccc2nc(N)nc(N)c12`, the figure is 3 µM; as for `COc1ccc(OC)c(NCc2ccc3nc(N)nc(N)c3n2)c1`, 1 µM; as for `CCC1CCc2nc(N)nc(N)c2C1` (configuration not stated), 9 µM.
Same read-out and setting: as for `Nc1nc(N)c2c(n1)CCC(c1ccccc1)C2` (configuration not stated), the figure is 2 µM; as for `Nc1nc(N)c2c(n1)CCC(Cc1ccsc1)C2` (configuration not stated), 1 µM; as for `COc1cc(Cc2cnc(N)nc2N)cc(OC)c1OC` [TRIMETHOPRIM], 4 µM.

A further experiment has as its system Trypanosoma brucei. Put plainly: Antimicrobial activity against Trypanosoma brucei. Type of experiment: functional, organism-based.
Details: not given
Turning to `COc1cccc2c1cc1c3ccccc3nc-1n2C`, the 50% inhibitory concentration (IC50) was 1 µM. This lies in the single-digit micromolar range.
Same read-out and setting: to `Cn1c2nc3ccc(C#N)cc3c-2cc2cc(C(F)(F)F)ccc21` belongs 32 µM.
On the same count and under the same terms, to `Fc1ccc2[nH]c3nc4ccccc4c-3cc2c1` belongs 32 µM.
The compound `Cn1c2nc3ccccc3c-2cc2cc(Cl)ccc21` returned an IC50 of 1 µM.
Same read-out and setting: as for `Clc1ccc2[nH]c3nc4ccccc4c-3cc2c1`, the figure is 32 µM; as for `Clc1cc(Cl)c2[nH]c3nc4ccccc4c-3cc2c1`, 32 µM; as for `CCCCC12CC3CC(C1)CC(NC)(C3)C2`, 2 µM.
On the same count and under the same terms, as for `NCCCC12CC3CC(CC(C3)C1)C2`, the figure is 1 µM.
On the same count and under the same terms, to `CNC12CC3CC(C1)CC(C(C)C)(C3)C2` belongs 6 µM; to `CCCC1(N)CC(C)(C)CC(C)(C)C1`, 6 µM.
In the case of `CCCC1(C)CC(C)(C)CC(C)(N)C1` (configuration not stated), the IC50 was found to be 2 µM.
`CCCC1(CCC)CC(C)(C)CC(C)(N)C1` (configuration not stated): the midpoint of inhibition, the IC50, lay at 1 µM.
On the same count and under the same terms, as for `CCCC1CC(C)(C)CC(C)(N)C1` (configuration not stated), the figure is 3 µM; as for `CCNC1(C)CC(C)(C)CC(C)(C)C1`, 6 µM; as for `Cn1c2nc3ccc(C#N)cc3c-2cc2ccccc21`, 32 µM.
Still for that read-out and setting: as for `COc1ccc2[nH]c3nc4ccccc4c-3cc2c1`, the figure is 32 µM; as for `CSc1ccc2c(c1)cc1c3ccccc3nc-1n2C`, 1 µM; as for `Cn1c2nc3ccccc3c-2cc2cc([N+](=O)[O-])ccc21`, 1 µM.

The subject of another experiment is Toxoplasma gondii. Put plainly: Antimicrobial activity against Toxoplasma gondii. The format is functional, organism-based.
Details: not given
Consider `N[C@@H]1[C@H]2CN(c3nc4c(cc3F)c(=O)c(C(=O)O)cn4-c3ccc(F)cc3F)C[C@@H]12` (stereo in doubt; form 2) [TROVAFLOXACIN], for which the IC50 was found to be 2 µM. This counts as single-digit micromolar.

The experiment is the same for the next values; noted with them: Toxoplasma gondii.
Consider `O=[N+]([O-])c1cccc(Sc2cc3ccccc3[nH]2)c1`, for which the IC50 worked out at 2 µM.
Same read-out and setting: to `c1ccc2cc(Sc3cc4ccccc4[nH]3)ccc2c1` belongs 4 µM; to `COc1ccc(Sc2cc3ccccc3[nH]2)cc1`, 17 µM; to `[O-][S+](c1ccccc1)c1cc2ccccc2[nH]1` (configuration not stated), 50 µM.
Same read-out and setting: to `O=C(O)COCCOCCOc1cc(Cl)c(Cl)cc1Cl` belongs 1 µM.
Still for that read-out and setting: to `c1ccc2[nH]c(Sc3cccc4ccccc34)cc2c1` belongs 3 µM; to `O=[N+]([O-])c1ccc(Sc2cc3ccccc3[nH]2)cc1`, 14 µM; to `CSc1c(Sc2ccc([N+](=O)[O-])cc2)[nH]c2ccccc12`, 28 µM.
`NC(=O)c1nnn(Cc2cc(Cl)c(C(=O)C34CC5CC(CC(C5)C3)C4)c(Cl)c2)c1N`: the midpoint of inhibition, the IC50, lay at 15 µM.
The same measure, in the same setting: as for `c1ccc(Sc2cc3ccccc3[nH]2)cc1`, the figure is 1 µM.
`N[C@@H]1[C@H]2CN(c3nc4c(cc3F)c(=O)c(C(=O)O)cn4-c3ccc(F)cc3F)C[C@@H]12` (stereo in doubt; form 1) [TROVAFLOXACIN] gave an IC50 of 3 µM.
`C[C@@H]1[C@@H]2[C@@H](N)[C@@H]2CN1c1nc2c(cc1F)c(=O)c(C(=O)O)cn2-c1ccc(F)cc1F` [TROVAFLOXACIN1] had an IC50 of 1 µM.
Same read-out and setting: to `CN[C@H]1[C@@H]2CN(c3nc4c(cc3F)c(=O)c(C(=O)O)cn4-c3ccc(F)cc3F)C[C@@H]21` [TROVAFLOXACIN2] belongs 1 µM; to `Cc1c(F)c(N2C[C@@H]3[C@@H](N)[C@@H]3C2)nc2c1c(=O)c(C(=O)O)cn2-c1ccc(F)cc1F` [TROVAFLOXACIN3], 1 µM.
Same read-out and setting: as for `N[C@@H]1[C@H]2CN(c3nc4c(cc3F)c(=O)c(C(=O)O)cn4C3CC3)C[C@@H]12` [TROVAFLOXACIN4], the figure is 2 µM.
The compound `N[C@@H]1[C@H]2CN(c3cc4c(cc3F)c(=O)c(C(=O)O)cn4-c3ccc(F)cc3F)C[C@@H]12` [TROVAFLOXACIN6] had an IC50 of 3 µM.
On the same count and under the same terms, as for `C[C@@H]1[C@@H]2[C@@H](CN)[C@@H]2CN1c1nc2c(cc1F)c(=O)c(C(=O)O)cn2-c1ccc(F)cc1F` [TROVAFLOXACIN7], the figure is 3 µM; as for `NC12CC1CN(c1nc3c(cc1F)c(=O)c(C(=O)O)cn3-c1ccc(F)cc1F)C2` (configuration not stated) [TROVAFLOXACIN8], 7 µM; as for `NC[C@@H]1[C@H]2CN(c3nc4c(cc3F)c(=O)c(C(=O)O)cn4C3CC3)C[C@@H]12` [TROVAFLOXACIN9], 12 µM.
On the same count and under the same terms, as for `NCC12CC1CN(c1nc3c(cc1F)c(=O)c(C(=O)O)cn3C1CC1)C2` (configuration not stated) [TROVAFLOXACIN10], the figure is 12 µM; as for `NC[C@@H]1[C@H]2CN(c3nc4c(cc3F)c(=O)c(C(=O)O)cn4-c3ccc(F)cc3F)C[C@@H]12` [TROVAFLOXACIN11], 9 µM; as for `C[C@H]1[C@H](C)CC[C@]2(C(=O)O)CC[C@]3(C)C(=CC[C@@H]4[C@@]5(C)CC[C@H](O)C(C)(C)[C@@H]5CC[C@]43C)[C@H]12` [URSOLIC ACID], 1 µM.

Another experiment relates to Trypanosoma brucei brucei. The experiment can be described thus: Antimicrobial activity against Trypanosoma brucei brucei. Type of experiment: functional, organism-based.
Details: not given
As for `CC1CS(=O)(=O)CCN1/N=C/c1ccc([N+](=O)[O-])o1` (configuration not stated) [NIFURTIMOX], the IC50 was determined as 6 µM.

The subject of a further experiment is Plasmodium falciparum. Put plainly: Antimicrobial activity against Plasmodium falciparum. The format is functional, organism-based.
Details: not given
As for `Fc1ccc2[nH]c3nc4ccccc4c-3cc2c1`, the IC50 stood at 32 µM.
`Clc1ccc2[nH]c3nc4ccccc4c-3cc2c1` gave an IC50 of 32 µM.
On the same count and under the same terms, to `Cn1c2nc3ccc(C#N)cc3c-2cc2ccccc21` belongs 32 µM; to `COc1ccc2[nH]c3nc4ccccc4c-3cc2c1`, 32 µM.

The test system of a further experiment is Trypanosoma cruzi. The experiment can be described thus: Antimicrobial activity against Trypanosoma cruzi. To be noted: Trypanosoma cruzi. The format is functional, organism-based.
As for `Cn1c2nc3ccc(C#N)cc3c-2cc2cc(C(F)(F)F)ccc21`, the IC50 was found to be 32 µM.
Same read-out and setting: as for `Fc1ccc2[nH]c3nc4ccccc4c-3cc2c1`, the figure is 32 µM.
Still for that read-out and setting: as for `Clc1ccc2[nH]c3nc4ccccc4c-3cc2c1`, the figure is 32 µM.

Values taken from ChEMBL document CHEMBL1212812, “Multi-target spectral moment QSAR versus ANN for antiparasitic drugs against different parasite species” (Bioorg Med Chem, 2010).
